Results taken from ChEMBL document CHEMBL5303304, “EUbOPEN Chemogenomics Library - IncuCyte” (2023).

Experiments:
Format in all cases: toxicity, cell-based
[1] = tested on: U2OS; experiment: Incucyte cell viability with U2OS; conditions: human, 10 µM, compound concentration 10 uM
[2] = tested on: Fibroblast; experiment: Incucyte cell viability with human fibroblast; conditions: 10 µM, compound concentration 10 uM
[3] = tested on: HEK-293T; experiment: Incucyte cell viability with HEK293T; conditions: human, 10 µM, compound concentration 10 uM
Also: unitless GR value; below 1 slowed growth and below 0 cell loss.

SMILES | Growth Rate ([1]; 6 h, replicate number 1) | Growth Rate ([1]; 12 h, replicate number 1) | Growth Rate ([1]; 18 h, replicate number 1) | Growth Rate ([2]; 6 h, replicate number 2) | Growth Rate ([2]; 12 h, replicate number 2) | Growth Rate ([2]; 18 h, replicate number 1) | Growth Rate ([2]; 18 h, replicate number 2) | Growth Rate ([2]; 24 h, replicate number 1) | Growth Rate ([2]; 24 h, replicate number 2) | Growth Rate ([3]; 6 h, replicate number 2) | Growth Rate ([3]; 12 h, replicate number 1) | Growth Rate ([3]; 12 h, replicate number 2) | Growth Rate ([3]; 18 h, replicate number 1) | Growth Rate ([3]; 18 h, replicate number 2) | Growth Rate ([3]; 24 h, replicate number 1) | Growth Rate ([3]; 24 h, replicate number 2) | Growth Rate ([1]; 12 h, replicate number 2) | Growth Rate ([1]; 18 h, replicate number 2) | Growth Rate ([1]; 24 h, replicate number 1) | Growth Rate ([1]; 24 h, replicate number 2) | further results
CCCCc1oc2ccccc2c1C(=O)c1cc(I)c(OCCN(CC)CC)c(I)c1.Cl [AMIODARONE HYDROCHLORIDE] | 0.43 | 0.98 | 0.77 | -0.16 | -0.27 | -0.02 | -0.44 | -0.01 | -0.43 | -0.04 | 0.36 | -0.11 | 0.5 | 0.1 | 0.45 | 0.24 |  |  |  |  | Growth Rate ([1]; 0 h, replicate number 1): 0.24; Growth Rate ([2]; 0 h, replicate number 1): 0.24; Growth Rate ([2]; 12 h, replicate number 1): 0.4; Growth Rate ([3]; 0 h, replicate number 2): -0.99; Growth Rate ([3]; 6 h, replicate number 1): 0.31
O=C(Nc1cccc(Nc2nccc(Nc3cccc(C(F)(F)F)c3)n2)c1)C1CC1 [ANILINOPYRIMIDINE1] | -0.16 | -0.21 | -0.21 | -1 | -0.73 | -0.68 |  | -0.48 | -0.55 | -0.97 | -0.71 | -0.79 | -0.46 | -0.54 | -0.29 | -0.38 | -0.42 | -0.3 | -0.08 | -0.1 | Growth Rate ([1]; 0 h, replicate number 1): -0.01; Growth Rate ([1]; 0 h, replicate number 2): 0.91; Growth Rate ([1]; 6 h, replicate number 2): -0.36; Growth Rate ([2]; 0 h, replicate number 1): -1; Growth Rate ([2]; 6 h, replicate number 1): -0.79; Growth Rate ([2]; 12 h, replicate number 1): -0.84; Growth Rate ([3]; 6 h, replicate number 1): -0.91
Cc1nnc2n1-c1sc(CCC(=O)N3CCOCC3)cc1C(c1ccccc1Cl)=NC2 [APAFANT] | 0.58 | 0.67 | 0.88 |  |  | 0.73 |  | 0.8 |  |  | 0.78 |  |  |  |  |  | 0.76 |  | 0.88 | 0.98 | Growth Rate ([1]; 0 h, replicate number 1): 0.87; Growth Rate ([1]; 6 h, replicate number 2): 0.99; Growth Rate ([2]; 0 h, replicate number 2): -0.81; Growth Rate ([3]; 0 h, replicate number 2): -0.56
CC(C)[C@H](C(=O)Nc1ccc(C(=O)NO)cc1)c1ccccc1 [AR-42] |  | 0.83 | 0.46 | 0.66 | 0.61 | -0.41 | 0.42 | 0.78 | 0.61 |  |  |  |  | 0.59 | 0.89 | 0.37 | 0.96 | 0.44 | 0 | 0.11 | Growth Rate ([1]; 6 h, replicate number 2): 0.73; Growth Rate ([2]; 0 h, replicate number 1): 0.71; Growth Rate ([2]; 0 h, replicate number 2): 0.62; Growth Rate ([2]; 12 h, replicate number 1): -1; Growth Rate ([3]; 0 h, replicate number 1): -0.15; Growth Rate ([3]; 0 h, replicate number 2): 0.49
O=C(Nc1ccc(OC(F)(F)Cl)cc1)c1cnc(N2CC[C@@H](O)C2)c(-c2ccn[nH]2)c1 [ASCIMINIB] |  |  |  | -0.75 | 0.12 | 0.17 | 0.46 | 0.35 | 0.63 | -0.37 | -0.32 | -0.17 | -0.06 | 0.07 | 0.02 | 0.19 | 0.61 | 0.82 | 0.95 |  | Growth Rate ([1]; 0 h, replicate number 2): 0.44; Growth Rate ([2]; 0 h, replicate number 1): -1; Growth Rate ([2]; 0 h, replicate number 2): 0.89; Growth Rate ([2]; 6 h, replicate number 1): 0.15; Growth Rate ([2]; 12 h, replicate number 1): 0.06; Growth Rate ([3]; 6 h, replicate number 1): -0.71
CCN1CCN(Cc2ccc(NC(=O)Nc3ccc(Oc4cc(NC)ncn4)cc3)cc2C(F)(F)F)CC1 [AST-487] |  |  | 0.36 |  |  |  | 0.81 |  | 0.4 | -0.54 |  | -0.4 |  | -0.29 |  | -0.21 | 0.86 | 0.41 | 0.19 | 0.08 | Growth Rate ([1]; 0 h, replicate number 2): -0.84; Growth Rate ([2]; 0 h, replicate number 1): 0.93; Growth Rate ([2]; 6 h, replicate number 1): -1; Growth Rate ([3]; 0 h, replicate number 1): -0.91
C[C@@H]1CN(CC(=O)N2CC(C)(C)c3nc(CO)c(Cc4ccc(F)cc4)cc32)[C@@H](CN2CCOC[C@H]2C)CN1 [ASTX-660] |  |  |  |  |  |  |  |  |  |  |  |  | 0.97 |  | 0.89 |  |  |  | 0.98 |  | Growth Rate ([2]; 0 h, replicate number 2): 0.14; Growth Rate ([3]; 0 h, replicate number 1): 0.18
O=C(NC1CCNCC1)c1n[nH]cc1NC(=O)c1c(Cl)cccc1Cl [AT-7519] | 0.44 | 0.18 | 0.05 | 0.01 | -0.1 | 0.17 | -0.23 | 0.08 | -0.17 | -0.74 | -0.27 | -0.63 | -0.2 | -0.51 | -0.15 | -0.4 | 0.4 |  | -0.08 | 0.03 | Growth Rate ([1]; 6 h, replicate number 2): 0.71; Growth Rate ([2]; 0 h, replicate number 1): -1; Growth Rate ([2]; 0 h, replicate number 2): -0.43; Growth Rate ([2]; 6 h, replicate number 1): 0.78; Growth Rate ([2]; 12 h, replicate number 1): 0.38; Growth Rate ([3]; 0 h, replicate number 1): -0.17; Growth Rate ([3]; 6 h, replicate number 1): -0.3
O=C(Nc1c[nH]nc1-c1nc2cc(CN3CCOCC3)ccc2[nH]1)NC1CC1 [AT-9283] |  | 0.31 | -0.05 |  |  | 0.66 | 0.81 | 0.09 | 0.43 | -0.8 | -0.57 | -0.59 | -0.46 | -0.43 | -0.38 | -0.3 | 0.78 | 0.14 | -0.18 | -0.09 | Growth Rate ([1]; 0 h, replicate number 1): -1; Growth Rate ([1]; 0 h, replicate number 2): 0.73; Growth Rate ([3]; 6 h, replicate number 1): -0.72
COc1cc(F)ccc1-c1ncnc(Nc2cccc(C[S@](C)(=N)=O)c2)n1 [ATUVECICLIB] | 0.72 | 0.33 | 0.11 | -0.07 | -0.33 | -0.01 | -0.2 | 0.09 | -0.14 | -0.61 | -0.37 | -0.56 | -0.26 | -0.44 | -0.25 | -0.36 | 0.18 | 0.07 | 0.03 | -0.05 | Growth Rate ([1]; 0 h, replicate number 2): 0.53; Growth Rate ([1]; 6 h, replicate number 2): 0.22; Growth Rate ([2]; 0 h, replicate number 1): -0.58; Growth Rate ([2]; 6 h, replicate number 1): -0.11; Growth Rate ([2]; 12 h, replicate number 1): -0.04; Growth Rate ([3]; 6 h, replicate number 1): -0.48
Cc1[nH]nc(C(F)(F)F)c1Cc1sc2c(c1C(=O)N1C[C@](C)(O)CO1)c(=O)n(C)c(=O)n2C(C)C [AZD3965] |  | 0.92 |  |  | 0.69 |  | 0.97 | 0.9 | 0.8 |  | 0.53 | 0.43 | 0.17 | 0.22 | 0.11 | 0.21 | 0.71 | 0.69 | 0.75 | 0.83 | Growth Rate ([2]; 6 h, replicate number 1): 0.95; Growth Rate ([3]; 0 h, replicate number 1): -0.63; Growth Rate ([3]; 0 h, replicate number 2): -0.81
Cc1cc2ncnn2cc1Nc1ncc2c(n1)n(C1CCOCC1)c(=O)n2C [AZD-7648] |  |  |  |  |  |  | 0.83 |  | 0.93 | 0.98 | 0.78 | 0.76 | 0.87 | 0.95 | 0.93 |  |  |  | 0.9 |  | Growth Rate ([1]; 0 h, replicate number 1): 0.4; Growth Rate ([2]; 0 h, replicate number 2): 0.27; Growth Rate ([3]; 6 h, replicate number 1): 0.34
C[C@@H]1Cc2c([nH]c3ccccc23)[C@@H](c2c(F)cc(/C=C/C(=O)O)cc2F)N1CC(C)(C)F [AZD-9496] | 0.39 | 0.94 | 0.92 | -0.38 | 0.62 |  | 0.88 |  | 0.65 |  |  |  |  |  |  |  |  |  | 0.91 |  | Growth Rate ([1]; 0 h, replicate number 1): 0.01; Growth Rate ([3]; 0 h, replicate number 1): -0.59; Growth Rate ([3]; 0 h, replicate number 2): -0.31
Cc1onc(-c2ccc(F)cc2)c1COc1ccc(C(=O)N2CCS(=O)(=O)CC2)cn1 [BASMISANIL] | 0.73 | 0.73 | 0.87 | -0.92 | 0.69 | -0.07 |  |  |  | 0.2 |  | 0.86 |  | 0.92 | 0.97 | 0.94 | 0.8 | 0.98 | 0.86 | 0.82 | Growth Rate ([1]; 6 h, replicate number 2): 0.62; Growth Rate ([2]; 0 h, replicate number 2): -0.96; Growth Rate ([2]; 12 h, replicate number 1): -1
